Patent US6518243B1, “Desleucyl glycopeptide antibiotics and methods of making same” (Trustees of Princeton University, priority 1999, dated 2003)

What was measured:
Assay in all cases: Zone of inhibition screen, 96 well agar array format
Assay type in all cases: cell-based
Set-up in all cases: scale not given here
S. aureus (ATCC 29213) = conditions: zone of inhibition relative to 1 mg/ml stock solution of p-chlorobiphenylvancomycin
Procedure, shortened: (§1)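 Compounds are screened one by one for antibacterial effect in an agar array of 96 wells, using the same set of strains throughout.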

[1] = system: S. epidermidis (ATCC 12228)
Procedure, shortened: as §1

E. faecalis (CL 4877) = conditions: zone of inhibition relative to 1 mg/ml p-chlorobiphenylvancomycin
Procedure, shortened: as §1

[2] = zone of inhibition relative to 1 mg/ml stock solution of p-chlorobiphenylvancomycin
[3] = zone of inhibition relative to 1 mg/ml p-chlorobiphenylvancomycin

SMILES	zone score, S. aureus ATCC 29213 (S. aureus (ATCC 29213))	zone score, S. epidermidis ATCC 12228 [1, 2]	zone score, E. faecalis CL 4877 (E. faecalis (CL 4877))	zone score, S. epidermidis ATCC 12228 [1, 3]
CC(=O)OC(CC(=O)NC1C(=O)NC(CC(N)=O)C(=O)NC2C(=O)NC3C(=O)NC(C(=O)NC(C(=O)O)c4cc(O)cc(O)c4-c4cc3ccc4O)C(O)c3ccc(c(Cl)c3)Oc3cc2cc(c3OC2OC(CO)C(O)C(O)C2OC2CC(C)(NCc3ccc(-c4ccc(Cl)cc4)cc3)C(O)C(C)O2)Oc2ccc(cc2Cl)C1O)C[N+](C)(C)C (mixture of isomers) [Compound 118]	2	2		
CSCCC(NC(C)=O)C(=O)NC1C(=O)NC(CC(N)=O)C(=O)NC2C(=O)NC3C(=O)NC(C(=O)NC(C(=O)O)c4cc(O)cc(O)c4-c4cc3ccc4O)C(O)c3ccc(c(Cl)c3)Oc3cc2cc(c3OC2OC(CO)C(O)C(O)C2OC2CC(C)(NCc3ccc(-c4ccc(Cl)cc4)cc3)C(O)C(C)O2)Oc2ccc(cc2Cl)C1O (mixture of isomers) [Compound 175]	2	2		
CCCCCCCCCCCCCC(=O)NCC(=O)N[C@H]1C(=O)N[C@@H](CC(N)=O)C(=O)N[C@H]2C(=O)N[C@H]3C(=O)N[C@H](C(=O)N[C@@H](C(=O)O)c4cc(O)cc(O)c4-c4cc3ccc4O)[C@H](O)c3ccc(c(Cl)c3)Oc3cc2cc(c3O[C@@H]2O[C@H](CO)[C@@H](O)[C@H](O)[C@H]2O[C@@H]2C[C@@](C)(NCc3ccc(-c4ccc(Cl)cc4)cc3)[C@@H](O)[C@@H](C)O2)Oc2ccc(cc2Cl)[C@H]1O [Compound 22]	2	2		
CSCCC(N)C(O)CC(=O)NC1C(=O)NC(CC(N)=O)C(=O)NC2C(=O)NC3C(=O)NC(C(=O)NC(C(=O)O)c4cc(O)cc(O)c4-c4cc3ccc4O)C(O)c3ccc(c(Cl)c3)Oc3cc2cc(c3OC2OC(CO)C(O)C(O)C2OC2CC(C)(NCc3ccc(-c4ccc(Cl)cc4)cc3)C(O)C(C)O2)Oc2ccc(cc2Cl)C1O (stereo not shown) [Compound 31]	2	2		
CC1OC(OC2C(Oc3c4cc5cc3Oc3ccc(cc3Cl)C(O)C3NC(=O)C(NC(=O)C5NC(=O)C(CC(N)=O)NC(=O)C(NC(=O)CC(N)C(N)=O)C(O)c5ccc(c(Cl)c5)O4)c4ccc(O)c(c4)-c4c(O)cc(O)cc4C(C(=O)O)NC3=O)OC(CO)C(O)C2O)CC(C)(NCc2ccc(-c3ccc(Cl)cc3)cc2)C1O (stereo not shown) [Compound 74]	2	2		
CC1OC(OC2C(Oc3c4cc5cc3Oc3ccc(cc3Cl)C(O)C3NC(=O)C(NC(=O)C5NC(=O)C(CC(N)=O)NC(=O)C(NC(=O)C(N)CCCCNC(N)=O)C(O)c5ccc(c(Cl)c5)O4)c4ccc(O)c(c4)-c4c(O)cc(O)cc4C(C(=O)O)NC3=O)OC(CO)C(O)C2O)CC(C)(NCc2ccc(-c3ccc(Cl)cc3)cc2)C1O (stereo not shown) [Compound 78]	2	2		
C=CCOC(=O)NCCC(N)C(=O)NC1C(=O)NC(CC(N)=O)C(=O)NC2C(=O)NC3C(=O)NC(C(=O)NC(C(=O)O)c4cc(O)cc(O)c4-c4cc3ccc4O)C(O)c3ccc(c(Cl)c3)Oc3cc2cc(c3OC2OC(CO)C(O)C(O)C2OC2CC(C)(NCc3ccc(-c4ccc(Cl)cc4)cc3)C(O)C(C)O2)Oc2ccc(cc2Cl)C1O (stereo not shown) [Compound 93]	2	2		
CC(=O)OCC(=O)NC1C(=O)NC(CC(N)=O)C(=O)NC2C(=O)NC3C(=O)NC(C(=O)NC(C(=O)O)c4cc(O)cc(O)c4-c4cc3ccc4O)C(O)c3ccc(c(Cl)c3)Oc3cc2cc(c3OC2OC(CO)C(O)C(O)C2OC2CC(C)(NCc3ccc(-c4ccc(Cl)cc4)cc3)C(O)C(C)O2)Oc2ccc(cc2Cl)C1O (stereo not shown) [Compound 117]	2	2		
CC(=O)NC1C(=O)NC(CC(N)=O)C(=O)NC2C(=O)NC3C(=O)NC(C(=O)NC(C(=O)O)c4cc(O)cc(O)c4-c4cc3ccc4O)C(O)c3ccc(c(Cl)c3)Oc3cc2cc(c3OC2OC(CO)C(O)C(O)C2OC2CC(C)(NCc3ccc(-c4ccc(Cl)cc4)cc3)C(O)C(C)O2)Oc2ccc(cc2Cl)C1O (stereo not shown) [Compound 279]			2	2
CC1OC(OC2C(Oc3c4cc5cc3Oc3ccc(cc3Cl)C(O)C3NC(=O)C(NC(=O)C5NC(=O)C(CC(N)=O)NC(=O)C(NC(=O)c5ccccc5N)C(O)c5ccc(c(Cl)c5)O4)c4ccc(O)c(c4)-c4c(O)cc(O)cc4C(C(=O)O)NC3=O)OC(CO)C(O)C2O)CC(C)(NCc2ccc(-c3ccc(Cl)cc3)cc2)C1O (stereo not shown) [Compound 280]			2	2
CC1NC(=O)NC1CCCCCC(=O)NC1C(=O)NC(CC(N)=O)C(=O)NC2C(=O)NC3C(=O)NC(C(=O)NC(C(=O)O)c4cc(O)cc(O)c4-c4cc3ccc4O)C(O)c3ccc(c(Cl)c3)Oc3cc2cc(c3OC2OC(CO)C(O)C(O)C2OC2CC(C)(NCc3ccc(-c4ccc(Cl)cc4)cc3)C(O)C(C)O2)Oc2ccc(cc2Cl)C1O (stereo not shown) [Compound 284]			2	2
CCOC(=O)C=CC(=O)NC1C(=O)NC(CC(N)=O)C(=O)NC2C(=O)NC3C(=O)NC(C(=O)NC(C(=O)O)c4cc(O)cc(O)c4-c4cc3ccc4O)C(O)c3ccc(c(Cl)c3)Oc3cc2cc(c3OC2OC(CO)C(O)C(O)C2OC2CC(C)(NCc3ccc(-c4ccc(Cl)cc4)cc3)C(O)C(C)O2)Oc2ccc(cc2Cl)C1O (stereo not shown) [Compound 288]			2	2
CC1OC(OC2C(Oc3c4cc5cc3Oc3ccc(cc3Cl)C(O)C3NC(=O)C(NC(=O)C5NC(=O)C(CC(N)=O)NC(=O)C(NC(=O)c5ccncc5)C(O)c5ccc(c(Cl)c5)O4)c4ccc(O)c(c4)-c4c(O)cc(O)cc4C(C(=O)O)NC3=O)OC(CO)C(O)C2O)CC(C)(NCc2ccc(-c3ccc(Cl)cc3)cc2)C1O (stereo not shown) [Compound 292]			2	2
CC(O)C(=O)NC1C(=O)NC(CC(N)=O)C(=O)NC2C(=O)NC3C(=O)NC(C(=O)NC(C(=O)O)c4cc(O)cc(O)c4-c4cc3ccc4O)C(O)c3ccc(c(Cl)c3)Oc3cc2cc(c3OC2OC(CO)C(O)C(O)C2OC2CC(C)(NCc3ccc(-c4ccc(Cl)cc4)cc3)C(O)C(C)O2)Oc2ccc(cc2Cl)C1O (stereo not shown) [Compound 294]			2	2
CC(=O)CCC(=O)NC1C(=O)NC(CC(N)=O)C(=O)NC2C(=O)NC3C(=O)NC(C(=O)NC(C(=O)O)c4cc(O)cc(O)c4-c4cc3ccc4O)C(O)c3ccc(c(Cl)c3)Oc3cc2cc(c3OC2OC(CO)C(O)C(O)C2OC2CC(C)(NCc3ccc(-c4ccc(Cl)cc4)cc3)C(O)C(C)O2)Oc2ccc(cc2Cl)C1O (stereo not shown) [Compound 295]			2	2
CCOC(=O)C=CC(=O)NC1C(=O)NC(CC(N)=O)C(=O)NC2C(=O)NC3C(=O)NC(C(=O)NC(C(=O)O)c4cc(O)cc(O)c4-c4cc3ccc4O)C(O)c3ccc(c(Cl)c3)Oc3cc2cc(c3OC2OC(CO)C(O)C(O)C2OC2CC(C)(NCc3ccc(-c4ccc(Cl)cc4)cc3)C(O)C(C)O2)Oc2ccc(cc2Cl)C1O (stereo not shown) [Compound 296]			2	2
CC1OC(OC2C(Oc3c4cc5cc3Oc3ccc(cc3Cl)C(O)C3NC(=O)C(NC(=O)C5NC(=O)C(CC(N)=O)NC(=O)C(NC(=O)CSCCS(=O)(=O)c5ccc(Cl)cc5)C(O)c5ccc(c(Cl)c5)O4)c4ccc(O)c(c4)-c4c(O)cc(O)cc4C(C(=O)O)NC3=O)OC(CO)C(O)C2O)CC(C)(NCc2ccc(-c3ccc(Cl)cc3)cc2)C1O (stereo not shown) [Compound 300]			2	2
CC1OC(OC2C(Oc3c4cc5cc3Oc3ccc(cc3Cl)C(O)C3NC(=O)C(NC(=O)C5NC(=O)C(CC(N)=O)NC(=O)C(NC(=O)CNC(=O)C=Cc5ccco5)C(O)c5ccc(c(Cl)c5)O4)c4ccc(O)c(c4)-c4c(O)cc(O)cc4C(C(=O)O)NC3=O)OC(CO)C(O)C2O)CC(C)(NCc2ccc(-c3ccc(Cl)cc3)cc2)C1O (stereo not shown) [Compound 306]			2	2
CC1OC(OC2C(Oc3c4cc5cc3Oc3ccc(cc3Cl)C(O)C3NC(=O)C(NC(=O)C5NC(=O)C(CC(N)=O)NC(=O)C(NC(=O)c5ccc[n+]([O-])c5)C(O)c5ccc(c(Cl)c5)O4)c4ccc(O)c(c4)-c4c(O)cc(O)cc4C(C(=O)O)NC3=O)OC(CO)C(O)C2O)CC(C)(NCc2ccc(-c3ccc(Cl)cc3)cc2)C1O (stereo not shown) [Compound 308]			2	2
CNC(=O)C=CC(=O)NC1C(=O)NC(CC(N)=O)C(=O)NC2C(=O)NC3C(=O)NC(C(=O)NC(C(=O)O)c4cc(O)cc(O)c4-c4cc3ccc4O)C(O)c3ccc(c(Cl)c3)Oc3cc2cc(c3OC2OC(CO)C(O)C(O)C2OC2CC(C)(NCc3ccc(-c4ccc(Cl)cc4)cc3)C(O)C(C)O2)Oc2ccc(cc2Cl)C1O (stereo not shown) [Compound 309]			2	2
CC1OC(OC2C(Oc3c4cc5cc3Oc3ccc(cc3Cl)C(O)C3NC(=O)C(NC(=O)C5NC(=O)C(CC(N)=O)NC(=O)C(NC(=O)Cc5c(F)c(F)c(F)c(F)c5F)C(O)c5ccc(c(Cl)c5)O4)c4ccc(O)c(c4)-c4c(O)cc(O)cc4C(C(=O)O)NC3=O)OC(CO)C(O)C2O)CC(C)(NCc2ccc(-c3ccc(Cl)cc3)cc2)C1O (stereo not shown) [Compound 310]			2	2
CC1OC(OC2C(Oc3c4cc5cc3Oc3ccc(cc3Cl)C(O)C3NC(=O)C(NC(=O)C5NC(=O)C(CC(N)=O)NC(=O)C(NC(=O)c5cccs5)C(O)c5ccc(c(Cl)c5)O4)c4ccc(O)c(c4)-c4c(O)cc(O)cc4C(C(=O)O)NC3=O)OC(CO)C(O)C2O)CC(C)(NCc2ccc(-c3ccc(Cl)cc3)cc2)C1O (stereo not shown) [Compound 319]			2	2
CC1OC(OC2C(Oc3c4cc5cc3Oc3ccc(cc3Cl)C(O)C3NC(=O)C(NC(=O)C5NC(=O)C(CC(N)=O)NC(=O)C(NC(=O)Cc5ccsc5)C(O)c5ccc(c(Cl)c5)O4)c4ccc(O)c(c4)-c4c(O)cc(O)cc4C(C(=O)O)NC3=O)OC(CO)C(O)C2O)CC(C)(NCc2ccc(-c3ccc(Cl)cc3)cc2)C1O (stereo not shown) [Compound 320]			2	2
